Data as given in US9340590B2 (priority 2011, dated 2016).
Positions of bridges follow the written chain, without caps; N, C: chain ends. Residues, ends and D or L forms follow the SMILES beside them.

Legend:
Test in all cases: cell-based
hNav1.7 = hNav1.7 (Homo sapiens, UniProt Q15858); assay type: cell-based; conditions: IonWorks Quattro, Use; read-out: IWQ Use Nav1.7
hNav1.5 = hNav1.5 (Homo sapiens, UniProt Q14524); conditions: IonWorks Quattro, Use; read-out: IWQ Use Nav1.5
hNav1.3 = hNav1.3 (Homo sapiens, UniProt Q9NY46); conditions: IonWorks Quattro, Use; read-out: IWQ Use Nav1.3
Chain of hNav1.3 (Q9NY46 whole entry, looked up): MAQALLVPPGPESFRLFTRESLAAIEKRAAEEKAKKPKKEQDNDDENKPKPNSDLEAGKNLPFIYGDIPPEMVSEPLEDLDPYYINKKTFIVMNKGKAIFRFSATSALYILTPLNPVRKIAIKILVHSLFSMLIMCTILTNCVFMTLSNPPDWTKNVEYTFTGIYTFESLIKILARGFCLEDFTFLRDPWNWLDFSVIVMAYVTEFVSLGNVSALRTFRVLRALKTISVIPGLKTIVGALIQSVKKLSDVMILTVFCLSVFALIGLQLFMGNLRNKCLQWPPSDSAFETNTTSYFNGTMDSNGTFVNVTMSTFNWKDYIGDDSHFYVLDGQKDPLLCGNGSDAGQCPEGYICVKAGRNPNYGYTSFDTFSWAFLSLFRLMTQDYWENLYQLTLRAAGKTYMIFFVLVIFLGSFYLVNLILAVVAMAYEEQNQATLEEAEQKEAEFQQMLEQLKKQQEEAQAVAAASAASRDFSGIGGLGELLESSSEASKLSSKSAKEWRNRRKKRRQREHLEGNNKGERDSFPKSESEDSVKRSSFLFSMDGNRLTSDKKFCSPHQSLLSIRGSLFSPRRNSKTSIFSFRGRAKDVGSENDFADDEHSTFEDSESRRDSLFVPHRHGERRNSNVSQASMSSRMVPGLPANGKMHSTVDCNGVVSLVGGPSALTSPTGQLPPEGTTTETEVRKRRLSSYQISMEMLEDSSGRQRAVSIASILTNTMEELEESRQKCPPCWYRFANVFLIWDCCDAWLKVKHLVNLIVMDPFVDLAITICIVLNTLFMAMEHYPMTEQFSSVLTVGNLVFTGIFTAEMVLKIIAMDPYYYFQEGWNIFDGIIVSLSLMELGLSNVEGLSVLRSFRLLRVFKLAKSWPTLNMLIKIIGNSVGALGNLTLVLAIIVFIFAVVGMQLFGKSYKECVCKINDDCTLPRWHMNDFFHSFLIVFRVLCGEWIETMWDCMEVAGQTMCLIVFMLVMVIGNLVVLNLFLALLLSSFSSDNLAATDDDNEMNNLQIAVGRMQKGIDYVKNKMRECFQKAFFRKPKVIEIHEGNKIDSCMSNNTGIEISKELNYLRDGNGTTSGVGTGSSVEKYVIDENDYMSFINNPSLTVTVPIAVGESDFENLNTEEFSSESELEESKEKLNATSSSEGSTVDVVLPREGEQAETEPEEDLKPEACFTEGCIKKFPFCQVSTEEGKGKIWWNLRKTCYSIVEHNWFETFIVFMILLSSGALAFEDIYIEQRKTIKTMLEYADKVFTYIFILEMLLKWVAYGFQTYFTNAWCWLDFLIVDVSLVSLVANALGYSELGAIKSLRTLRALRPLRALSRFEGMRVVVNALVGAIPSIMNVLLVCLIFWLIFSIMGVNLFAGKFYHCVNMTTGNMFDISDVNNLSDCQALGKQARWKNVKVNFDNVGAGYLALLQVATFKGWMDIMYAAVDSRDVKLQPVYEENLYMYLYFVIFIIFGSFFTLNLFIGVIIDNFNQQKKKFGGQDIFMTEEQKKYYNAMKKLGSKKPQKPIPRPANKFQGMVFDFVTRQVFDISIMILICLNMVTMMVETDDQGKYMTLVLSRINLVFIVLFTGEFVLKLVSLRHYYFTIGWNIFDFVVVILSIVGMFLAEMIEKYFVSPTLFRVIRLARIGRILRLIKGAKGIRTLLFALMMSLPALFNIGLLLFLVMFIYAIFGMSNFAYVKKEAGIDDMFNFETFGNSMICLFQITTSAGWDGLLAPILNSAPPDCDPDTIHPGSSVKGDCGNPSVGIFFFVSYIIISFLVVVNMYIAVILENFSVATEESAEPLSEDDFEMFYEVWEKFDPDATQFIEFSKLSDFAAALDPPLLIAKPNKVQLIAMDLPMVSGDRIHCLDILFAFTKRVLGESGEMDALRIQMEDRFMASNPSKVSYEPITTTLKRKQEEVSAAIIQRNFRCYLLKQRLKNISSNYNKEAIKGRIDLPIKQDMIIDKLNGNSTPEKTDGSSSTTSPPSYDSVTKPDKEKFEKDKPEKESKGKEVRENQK

Chain of hNav1.5 (Q14524 whole entry, looked up): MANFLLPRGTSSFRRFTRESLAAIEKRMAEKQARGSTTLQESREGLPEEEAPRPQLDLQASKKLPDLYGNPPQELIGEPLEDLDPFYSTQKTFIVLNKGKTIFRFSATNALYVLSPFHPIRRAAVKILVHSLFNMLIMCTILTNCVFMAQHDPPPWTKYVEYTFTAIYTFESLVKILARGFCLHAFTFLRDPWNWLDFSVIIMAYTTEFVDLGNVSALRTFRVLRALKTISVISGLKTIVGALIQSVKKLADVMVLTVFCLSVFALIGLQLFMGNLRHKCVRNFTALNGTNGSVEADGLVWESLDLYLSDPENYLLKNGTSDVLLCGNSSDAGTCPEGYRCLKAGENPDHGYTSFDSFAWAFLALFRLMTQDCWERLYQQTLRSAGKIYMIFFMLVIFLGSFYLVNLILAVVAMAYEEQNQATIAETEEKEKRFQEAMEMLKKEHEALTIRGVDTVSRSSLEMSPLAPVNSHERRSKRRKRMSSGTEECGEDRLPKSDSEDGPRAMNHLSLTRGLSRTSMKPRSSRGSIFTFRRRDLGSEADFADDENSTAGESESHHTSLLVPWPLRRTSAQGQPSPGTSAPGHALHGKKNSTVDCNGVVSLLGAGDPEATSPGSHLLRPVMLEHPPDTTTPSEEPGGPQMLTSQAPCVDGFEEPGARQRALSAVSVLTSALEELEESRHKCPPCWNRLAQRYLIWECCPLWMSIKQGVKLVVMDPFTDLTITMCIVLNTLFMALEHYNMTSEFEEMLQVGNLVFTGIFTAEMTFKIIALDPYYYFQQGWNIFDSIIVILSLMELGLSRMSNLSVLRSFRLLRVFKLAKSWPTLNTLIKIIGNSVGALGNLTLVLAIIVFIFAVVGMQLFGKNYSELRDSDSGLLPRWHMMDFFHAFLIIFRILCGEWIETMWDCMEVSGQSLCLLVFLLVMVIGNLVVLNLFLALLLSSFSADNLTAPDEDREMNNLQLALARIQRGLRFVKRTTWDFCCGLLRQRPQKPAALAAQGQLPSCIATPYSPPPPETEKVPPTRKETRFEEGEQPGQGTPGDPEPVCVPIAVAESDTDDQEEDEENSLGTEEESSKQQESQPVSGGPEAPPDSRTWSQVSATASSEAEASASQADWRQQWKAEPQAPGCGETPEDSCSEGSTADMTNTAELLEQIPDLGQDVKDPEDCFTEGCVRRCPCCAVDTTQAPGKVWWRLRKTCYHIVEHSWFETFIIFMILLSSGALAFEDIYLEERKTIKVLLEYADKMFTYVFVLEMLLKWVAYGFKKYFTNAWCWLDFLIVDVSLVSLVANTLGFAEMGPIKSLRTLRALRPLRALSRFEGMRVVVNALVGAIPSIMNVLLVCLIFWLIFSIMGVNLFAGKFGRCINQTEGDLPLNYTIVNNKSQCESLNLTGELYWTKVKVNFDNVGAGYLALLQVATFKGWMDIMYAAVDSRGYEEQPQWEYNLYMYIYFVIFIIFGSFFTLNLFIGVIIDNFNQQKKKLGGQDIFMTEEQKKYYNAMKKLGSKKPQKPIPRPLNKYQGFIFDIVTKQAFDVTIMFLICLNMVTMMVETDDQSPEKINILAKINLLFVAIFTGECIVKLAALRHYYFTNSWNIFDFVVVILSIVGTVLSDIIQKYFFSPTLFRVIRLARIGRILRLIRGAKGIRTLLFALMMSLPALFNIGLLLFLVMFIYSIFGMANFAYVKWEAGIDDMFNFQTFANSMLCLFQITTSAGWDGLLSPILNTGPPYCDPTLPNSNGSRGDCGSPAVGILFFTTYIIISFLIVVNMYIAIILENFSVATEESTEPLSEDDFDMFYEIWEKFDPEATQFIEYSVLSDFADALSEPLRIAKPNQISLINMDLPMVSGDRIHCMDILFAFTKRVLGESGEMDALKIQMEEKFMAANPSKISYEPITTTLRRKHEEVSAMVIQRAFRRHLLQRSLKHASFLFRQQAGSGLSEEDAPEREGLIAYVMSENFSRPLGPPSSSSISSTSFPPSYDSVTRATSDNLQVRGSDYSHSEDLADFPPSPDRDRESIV

SMILES | IC50 (hNav1.7) | IC50 (hNav1.5) | IC50 (hNav1.3)
CC[C@H](C)[C@@H]1NC(=O)[C@@H]2CSSC[C@@H]3NC(=O)[C@@H]4CCCN4C(=O)[C@H](CC(C)C)NC(=O)[C@H](CC(N)=O)NC(=O)[C@@H]4CCCN4C(=O)[C@H](CCCNC(=N)N)NC(=O)[C@H](CSSC[C@H](NC(=O)[C@@H](N)CC(=O)O)C(=O)N[C@@H](CC(C)C)C(=O)NCC(=O)N[C@@H](Cc4ccccc4)C(=O)N[C@@H](CCSC)C(=O)N[C@@H](CCCNC(=N)N)C(=O)N[C@@H](CCCCN)C(=O)N2)NC(=O)[C@H](CSSC[C@@H](C(=O)N[C@@H](CCCCN)C(=O)N[C@@H](Cc2ccc(O)cc2)C(=O)N[C@H](C(=O)N[C@@H](Cc2ccccc2)C(N)=O)C(C)C)NC(=O)[C@H](Cc2c[nH]c4ccccc24)NC(=O)[C@H](CCCCN)NC(=O)[C@H](Cc2c[nH]cn2)NC(=O)[C@H]([C@@H](C)O)NC(=O)[C@H](CCCNC(=N)N)NC(=O)[C@H](CO)NC3=O)NC(=O)[C@H](CCCCN)NC(=O)[C@H](CC(=O)O)NC(=O)[C@H](CC(N)=O)NC(=O)[C@H](CC(=O)O)NC(=O)[C@@H]2CCCN2C1=O [compound 320] (H-DCLGFMRKCIPDNDKCCRPNLPCSRTHKWCKYVF-NH2; disulfide 2-17, 9-23, 16-30) | > 5000 nM | > 5000 nM | > 5000 nM
CC[C@H](C)[C@@H]1NC(=O)[C@H](CC(C)C)NC(=O)[C@H](CC(N)=O)NC(=O)[C@@H]2CCCN2C(=O)[C@H](CCCNC(=N)N)NC(=O)[C@@H]2CSSC[C@H](NC(=O)[C@@H](N)CC(=O)O)C(=O)N[C@@H](CC(C)C)C(=O)NCC(=O)N[C@@H](Cc3ccccc3)C(=O)N[C@@H](CCSC)C(=O)N[C@@H](CCCNC(=N)N)C(=O)N[C@@H](CCCCN)C(=O)N[C@H]3CSSC[C@H](NC1=O)C(=O)N[C@@H](CO)C(=O)N[C@@H](CCCNC(=N)N)C(=O)N[C@@H]([C@@H](C)O)C(=O)N[C@@H](Cc1c[nH]cn1)C(=O)N[C@@H](CCCCN)C(=O)N[C@@H](Cc1c[nH]c4ccccc14)C(=O)N[C@H](C(=O)N[C@@H](CCCCN)C(=O)N[C@@H](Cc1ccc(O)cc1)C(=O)N[C@H](C(=O)N[C@@H](Cc1ccccc1)C(N)=O)C(C)C)CSSC[C@H](NC(=O)[C@H](CCCCN)NC(=O)[C@H](CC(=O)O)NC(=O)[C@H](CC(N)=O)NC(=O)[C@H](CC(=O)O)NC(=O)[C@@H]1CCCN1C(=O)[C@H]([C@@H](C)CC)NC3=O)C(=O)N2 [compound 321] (H-DCLGFMRKCIPDNDKCCRPNLICSRTHKWCKYVF-NH2; disulfide 2-17, 9-23, 16-30) | 80 nM | 11500 nM | 70 nM
CC[C@H](C)[C@@H]1NC(=O)[C@@H]2CSSC[C@@H]3NC(=O)[C@H](CC(C)C)NC(=O)[C@H](CC(C)C)NC(=O)[C@H](CC(N)=O)NC(=O)[C@@H]4CCCN4C(=O)[C@H](CCCNC(=N)N)NC(=O)[C@H](CSSC[C@H](NC(=O)[C@@H](N)CC(=O)O)C(=O)N[C@@H](CC(C)C)C(=O)NCC(=O)N[C@@H](Cc4ccccc4)C(=O)N[C@@H](CCSC)C(=O)N[C@@H](CCCNC(=N)N)C(=O)N[C@@H](CCCCN)C(=O)N2)NC(=O)[C@H](CSSC[C@@H](C(=O)N[C@@H](CCCCN)C(=O)N[C@@H](Cc2ccc(O)cc2)C(=O)N[C@H](C(=O)N[C@@H](Cc2ccccc2)C(N)=O)C(C)C)NC(=O)[C@H](Cc2c[nH]c4ccccc24)NC(=O)[C@H](CCCCN)NC(=O)[C@H](Cc2c[nH]cn2)NC(=O)[C@H]([C@@H](C)O)NC(=O)[C@H](CCCNC(=N)N)NC(=O)[C@H](CO)NC3=O)NC(=O)[C@H](CCCCN)NC(=O)[C@H](CC(=O)O)NC(=O)[C@H](CC(N)=O)NC(=O)[C@H](CC(=O)O)NC(=O)[C@@H]2CCCN2C1=O [compound 322] (H-DCLGFMRKCIPDNDKCCRPNLLCSRTHKWCKYVF-NH2; disulfide 2-17, 9-23, 16-30) | 90 nM | 9580 nM | 70 nM
CC[C@H](C)[C@@H]1NC(=O)[C@@H]2CSSC[C@@H]3NC(=O)[C@H](CO)NC(=O)[C@H](CC(C)C)NC(=O)[C@H](CC(N)=O)NC(=O)[C@@H]4CCCN4C(=O)[C@H](CCCNC(=N)N)NC(=O)[C@H](CSSC[C@H](NC(=O)[C@@H](N)CC(=O)O)C(=O)N[C@@H](CC(C)C)C(=O)NCC(=O)N[C@@H](Cc4ccccc4)C(=O)N[C@@H](CCSC)C(=O)N[C@@H](CCCNC(=N)N)C(=O)N[C@@H](CCCCN)C(=O)N2)NC(=O)[C@H](CSSC[C@@H](C(=O)N[C@@H](CCCCN)C(=O)N[C@@H](Cc2ccc(O)cc2)C(=O)N[C@H](C(=O)N[C@@H](Cc2ccccc2)C(N)=O)C(C)C)NC(=O)[C@H](Cc2c[nH]c4ccccc24)NC(=O)[C@H](CCCCN)NC(=O)[C@H](Cc2c[nH]cn2)NC(=O)[C@H]([C@@H](C)O)NC(=O)[C@H](CCCNC(=N)N)NC(=O)[C@H](CO)NC3=O)NC(=O)[C@H](CCCCN)NC(=O)[C@H](CC(=O)O)NC(=O)[C@H](CC(N)=O)NC(=O)[C@H](CC(=O)O)NC(=O)[C@@H]2CCCN2C1=O [compound 323] (H-DCLGFMRKCIPDNDKCCRPNLSCSRTHKWCKYVF-NH2; disulfide 2-17, 9-23, 16-30) | 100 nM | 4420 nM | 90 nM
CC[C@H](C)[C@@H]1NC(=O)[C@@H]2CSSC[C@@H]3NC(=O)CNC(=O)[C@H](CC(C)C)NC(=O)[C@H](CC(N)=O)NC(=O)[C@@H]4CCCN4C(=O)[C@H](CCCNC(=N)N)NC(=O)[C@H](CSSC[C@H](NC(=O)[C@@H](N)CC(=O)O)C(=O)N[C@@H](CC(C)C)C(=O)NCC(=O)N[C@@H](Cc4ccccc4)C(=O)N[C@@H](CCSC)C(=O)N[C@@H](CCCNC(=N)N)C(=O)N[C@@H](CCCCN)C(=O)N2)NC(=O)[C@H](CSSC[C@@H](C(=O)N[C@@H](CCCCN)C(=O)N[C@@H](Cc2ccc(O)cc2)C(=O)N[C@H](C(=O)N[C@@H](Cc2ccccc2)C(N)=O)C(C)C)NC(=O)[C@H](Cc2c[nH]c4ccccc24)NC(=O)[C@H](CCCCN)NC(=O)[C@H](Cc2c[nH]cn2)NC(=O)[C@H]([C@@H](C)O)NC(=O)[C@H](CCCNC(=N)N)NC(=O)[C@H](CO)NC3=O)NC(=O)[C@H](CCCCN)NC(=O)[C@H](CC(=O)O)NC(=O)[C@H](CC(N)=O)NC(=O)[C@H](CC(=O)O)NC(=O)[C@@H]2CCCN2C1=O [compound 324] (H-DCLGFMRKCIPDNDKCCRPNLGCSRTHKWCKYVF-NH2; disulfide 2-17, 9-23, 16-30) | 140 nM | 10900 nM | 100 nM
CC[C@H](C)[C@@H]1NC(=O)[C@@H]2CSSC[C@@H]3NC(=O)[C@H](CC(N)=O)NC(=O)[C@H](CC(C)C)NC(=O)[C@H](CC(N)=O)NC(=O)[C@@H]4CCCN4C(=O)[C@H](CCCNC(=N)N)NC(=O)[C@H](CSSC[C@H](NC(=O)[C@@H](N)CC(=O)O)C(=O)N[C@@H](CC(C)C)C(=O)NCC(=O)N[C@@H](Cc4ccccc4)C(=O)N[C@@H](CCSC)C(=O)N[C@@H](CCCNC(=N)N)C(=O)N[C@@H](CCCCN)C(=O)N2)NC(=O)[C@H](CSSC[C@@H](C(=O)N[C@@H](CCCCN)C(=O)N[C@@H](Cc2ccc(O)cc2)C(=O)N[C@H](C(=O)N[C@@H](Cc2ccccc2)C(N)=O)C(C)C)NC(=O)[C@H](Cc2c[nH]c4ccccc24)NC(=O)[C@H](CCCCN)NC(=O)[C@H](Cc2c[nH]cn2)NC(=O)[C@H]([C@@H](C)O)NC(=O)[C@H](CCCNC(=N)N)NC(=O)[C@H](CO)NC3=O)NC(=O)[C@H](CCCCN)NC(=O)[C@H](CC(=O)O)NC(=O)[C@H](CC(N)=O)NC(=O)[C@H](CC(=O)O)NC(=O)[C@@H]2CCCN2C1=O [compound 325] (H-DCLGFMRKCIPDNDKCCRPNLNCSRTHKWCKYVF-NH2; disulfide 2-17, 9-23, 16-30) | 240 nM | 8070 nM | 90 nM
CC[C@H](C)[C@@H]1NC(=O)[C@@H]2CSSC[C@@H]3NC(=O)[C@H](Cc4c[nH]cn4)NC(=O)[C@H](CC(C)C)NC(=O)[C@H](CC(N)=O)NC(=O)[C@@H]4CCCN4C(=O)[C@H](CCCNC(=N)N)NC(=O)[C@H](CSSC[C@H](NC(=O)[C@@H](N)CC(=O)O)C(=O)N[C@@H](CC(C)C)C(=O)NCC(=O)N[C@@H](Cc4ccccc4)C(=O)N[C@@H](CCSC)C(=O)N[C@@H](CCCNC(=N)N)C(=O)N[C@@H](CCCCN)C(=O)N2)NC(=O)[C@H](CSSC[C@@H](C(=O)N[C@@H](CCCCN)C(=O)N[C@@H](Cc2ccc(O)cc2)C(=O)N[C@H](C(=O)N[C@@H](Cc2ccccc2)C(N)=O)C(C)C)NC(=O)[C@H](Cc2c[nH]c4ccccc24)NC(=O)[C@H](CCCCN)NC(=O)[C@H](Cc2c[nH]cn2)NC(=O)[C@H]([C@@H](C)O)NC(=O)[C@H](CCCNC(=N)N)NC(=O)[C@H](CO)NC3=O)NC(=O)[C@H](CCCCN)NC(=O)[C@H](CC(=O)O)NC(=O)[C@H](CC(N)=O)NC(=O)[C@H](CC(=O)O)NC(=O)[C@@H]2CCCN2C1=O [compound 326] (H-DCLGFMRKCIPDNDKCCRPNLHCSRTHKWCKYVF-NH2; disulfide 2-17, 9-23, 16-30) | 410 nM | 15600 nM | 100 nM
CC[C@H](C)[C@@H]1NC(=O)[C@@H]2CSSC[C@@H]3NC(=O)[C@H](CC(=O)O)NC(=O)[C@H](CC(C)C)NC(=O)[C@H](CC(N)=O)NC(=O)[C@@H]4CCCN4C(=O)[C@H](CCCNC(=N)N)NC(=O)[C@H](CSSC[C@H](NC(=O)[C@@H](N)CC(=O)O)C(=O)N[C@@H](CC(C)C)C(=O)NCC(=O)N[C@@H](Cc4ccccc4)C(=O)N[C@@H](CCSC)C(=O)N[C@@H](CCCNC(=N)N)C(=O)N[C@@H](CCCCN)C(=O)N2)NC(=O)[C@H](CSSC[C@@H](C(=O)N[C@@H](CCCCN)C(=O)N[C@@H](Cc2ccc(O)cc2)C(=O)N[C@H](C(=O)N[C@@H](Cc2ccccc2)C(N)=O)C(C)C)NC(=O)[C@H](Cc2c[nH]c4ccccc24)NC(=O)[C@H](CCCCN)NC(=O)[C@H](Cc2c[nH]cn2)NC(=O)[C@H]([C@@H](C)O)NC(=O)[C@H](CCCNC(=N)N)NC(=O)[C@H](CO)NC3=O)NC(=O)[C@H](CCCCN)NC(=O)[C@H](CC(=O)O)NC(=O)[C@H](CC(N)=O)NC(=O)[C@H](CC(=O)O)NC(=O)[C@@H]2CCCN2C1=O [compound 327] (H-DCLGFMRKCIPDNDKCCRPNLDCSRTHKWCKYVF-NH2; disulfide 2-17, 9-23, 16-30) | 1500 nM | 13300 nM | 630 nM
